Source: the supplement of paper PMC10307832

compound: Cc1ccc(NC(=O)c2ccc(CN3CCN(C)CC3)cc2)cc1Nc1nc(-c2cccnc2)cs1 [Masitinib] + CC(=O)Nc1cccc(-n2c(=O)n(C3CC3)c(=O)c3c(Nc4ccc(I)cc4F)n(C)c(=O)c(C)c32)c1 [Trametinib] (partner 0.02 µM); experiment: relative viability (nuclei count vs DMSO), 5 days (fraction); higher = more cells survive; conditions: first compound 0.01 µM
In short: (§1)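 A single step with final 0.05% Triton X-100, 1% formaldehyde and 1 ug/ml Hoechst fixed the cells and stained nuclei 5 days after treatment. Lung cancer cell lines in 1536-well plates had been treated by pin tool the day after seeding with one drug alone or a fixed anchor-drug dose plus five library-drug doses (not always all listed) in √10 steps, and nuclei were counted on 4× images. Relative viability is the ratio of nuclei in treated wells to nuclei in vehicle wells, taken as the median of duplicate plates.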

Cell Line | relative viability
NCI-H522 | 0.742
NCI-H838 | 0.375
NCI-H1651 | 0.776
NCI-H1734 | 0.682
NCI-H2009 | 0.29
LU99A | 0.619
PC-14 | 0.774
NCI-H596 | 0.723
NCI-H2228 | 0.385
EMC-BAC-2 | 0.576
NCI-H2087 | 0.176
NCI-H647 | 0.45
LK-2 | 0.743
NCI-H2126 | 0.523
NCI-H2342 | 0.89
NCI-H1793 | 0.54
H3255 | 0.471
COR-L23 | 0.543
COR-L 105 | 0.475
LOU-NH91 | 0.756
ChaGo-K-1 | 0.972
NCI-H358 | 0.148
NCI-H3122 | 0.26
HOP-62 | 0.394
SW 900 | 0.719
NCI-H1648 | 0.523
HCC-78 | 0.509
NCI-H1650 | 0.48
NCI-H2170 | 1.08

same assay, conditions: first compound 0.03162 µM

Cell Line | relative viability
NCI-H522 | 0.784
NCI-H838 | 0.425
NCI-H1651 | 0.792
NCI-H1734 | 0.661
NCI-H2009 | 0.239
LU99A | 0.597
PC-14 | 0.634
LCLC-103H | 0.624
NCI-H596 | 0.691
NCI-H2228 | 0.381
NCI-H2087 | 0.213
HCC-366 | 0.275
NCI-H647 | 0.381
LK-2 | 0.783
NCI-H2126 | 0.54
NCI-H2342 | 0.7
NCI-H1793 | 0.388
H3255 | 0.619
COR-L23 | 0.641
COR-L 105 | 0.438
LOU-NH91 | 0.765
ChaGo-K-1 | 0.852
NCI-H358 | 0.13
NCI-H3122 | 0.243
HOP-62 | 0.361
SW 900 | 0.736
NCI-H1648 | 0.436
HCC-78 | 0.787
NCI-H1650 | 0.54
NCI-H2170 | 0.76

same assay, conditions: first compound 0.1 µM

Cell Line | relative viability
NCI-H522 | 0.787
NCI-H838 | 0.458
NCI-H1651 | 0.836
NCI-H1734 | 0.759
NCI-H2009 | 0.296
LU99A | 0.624
PC-14 | 0.909
LCLC-103H | 0.693
NCI-H596 | 0.789
NCI-H2228 | 0.405
EMC-BAC-2 | 0.705
NCI-H2087 | 0.214
HCC-366 | 0.407
NCI-H647 | 0.435
LK-2 | 0.828
NCI-H2126 | 0.562

Cell Line | relative viability
NCI-H2342 | 0.844
NCI-H1793 | 0.407
H3255 | 0.499
COR-L23 | 0.673
COR-L 105 | 0.413
LOU-NH91 | 0.792
ChaGo-K-1 | 0.986
NCI-H358 | 0.135
NCI-H3122 | 0.24
HOP-62 | 0.349
SW 900 | 0.787
NCI-H1648 | 0.414
HCC-78 | 0.746
NCI-H1650 | 0.479
NCI-H2170 | 1.01

same assay, conditions: first compound 0.3162 µM

Cell Line | relative viability
NCI-H522 | 0.73
NCI-H838 | 0.451
NCI-H1651 | 0.901
NCI-H1734 | 0.696
NCI-H2009 | 0.26
LU99A | 0.559
PC-14 | 0.729
LCLC-103H | 0.713
NCI-H596 | 0.678
NCI-H2228 | 0.482
EMC-BAC-2 | 0.806
NCI-H2087 | 0.153
HCC-366 | 0.333
NCI-H647 | 0.364
LK-2 | 0.728
NCI-H2126 | 0.507
NCI-H2342 | 0.797
NCI-H1793 | 0.555
H3255 | 0.565
COR-L23 | 0.686
COR-L 105 | 0.411
LOU-NH91 | 0.732
ChaGo-K-1 | 0.909
NCI-H358 | 0.121
NCI-H3122 | 0.267
HOP-62 | 0.365
SW 900 | 0.821
HCC-78 | 0.745
NCI-H1650 | 0.493
NCI-H2170 | 0.984

same assay, conditions: first compound 1 µM

Cell Line | relative viability
NCI-H522 | 0.721
NCI-H838 | 0.488
NCI-H1651 | 0.856
NCI-H1734 | 0.663
NCI-H2009 | 0.268
LU99A | 0.503
PC-14 | 0.821
LCLC-103H | 0.669
NCI-H596 | 0.732
NCI-H2228 | 0.529
EMC-BAC-2 | 0.821
NCI-H2087 | 0.178
HCC-366 | 0.34
NCI-H647 | 0.411
LK-2 | 0.748
NCI-H2126 | 0.534

Cell Line | relative viability
NCI-H2342 | 0.875
NCI-H1793 | 0.346
H3255 | 0.582
COR-L23 | 0.571
COR-L 105 | 0.388
LOU-NH91 | 0.772
ChaGo-K-1 | 0.906
NCI-H358 | 0.122
NCI-H3122 | 0.168
HOP-62 | 0.375
SW 900 | 0.843
NCI-H1648 | 0.442
HCC-78 | 0.65
NCI-H1650 | 0.527
NCI-H2170 | 0.98

compound: Cc1ccc(NC(=O)c2ccc(CN3CCN(C)CC3)cc2)cc1Nc1nc(-c2cccnc2)cs1 [Masitinib] + C[C@]1(O)C[C@@H](c2nc(-c3ccc4ccc(-c5ccccc5)nc4c3)c3c(N)nccn32)C1 [Linsitinib] (partner 1 µM); experiment: as above; conditions: first compound 0.01 µM
In short: as §1

Cell Line | relative viability
NCI-H838 | 0.895
NCI-H1651 | 0.971
EBC-1 | 0.685
NCI-H1734 | 0.857
NCI-H2009 | 1.2
